This note sets out measurements from US20080226718A1, “Indole and Azaindole Derivatives For the Treatment of Inflammatory and Autoimmune Diseases” (Brane Discovery S.r.l, priority 2005, published 2008).

For test [1], the system named is encephalitogenic lymphocytes. In words: Spontaneous adhesion of encephalitogenic T cells on purified ICAM-1. Type of test: cell-based, SJL mice. To be noted: Mus musculus, Lymphocyte, 1 h; for inhibition at 5 µM: [cpd] 5 μM, read-out: Inhibition of Spontaneous Adhesion in encephalitogenic lymphocytes (% of control/non-treated cells) ICAM-1; for inhibition at 10 µM: [cpd] 10 μM; for inhibition at 50 µM: [cpd] 50 μM. The procedure:
(§1) Spontaneous adhesion of encephalitogenic lymphocytes was measured in adhesion assays on purified ICAM-1 and VCAM-1 as previously described (Constantin G. et al., J. Immunol. 162, 1144-1149, 1999). Autoreactive T cells were obtained from SJL mice immunized with PLP139-151 as described (Piccio L. et al., J. Immunol. 168, 1940-1949, 2002). Lymphocytes were treated with test compound at concentrations between 5-100 μM for 1 h, while control/untreated cells were treated with vehicle (DMSO). Results are expressed as percentage of inhibition over control (=100%) ±S.D and are the mean of three-four experiments.
(§2) ICAM-1 and VCAM-1 are adhesion molecules from the family of immunoglobulins and control the migration of lymphocytes through the endothelium during inflammatory responses. Encephalitogenic T cells are activated lymphocytes displaying spontaneous adhesion on ICAM-1 and VCAM-1 and have increased migration capacities in inflammation sites. Spontaneous adhesion of encephalitogenic lymphocytes was measured in adhesion assays on purified ICAM-1 and VCAM-1 as described in the method.

Test [2] deals with encephalitogenic lymphocytes. In words: Chemokine-induced adhesion of murine encephalitogenic T cells to ICAM-1. Type of test: cell-based, SJL mice. To be noted: for Chemokine-induced Adhesion in encephalitogenic lymphocytes, Mean counts ± S.D., in presence of MIP3-β stimulation: 1 μM CCL19 (MIP-3beta); for Chemokine-induced Adhesion in encephalitogenic lymphocytes, Mean counts ± S.D., in presence of MIP3-β stimulation / Adhesion in encephalitogenic lymphocytes, Mean counts ± S.D., in absence of MIP3-β stimulation: ICAM-1. The protocol:
(§3) Adhesion was performed on purified integrin ligands and was evaluated as reported in Constantin G. et al., Immunity, 16, 759-769, 2000. Briefly, primary naïve lymphocytes, polymorphonuclear neutrophils (PMNs) or monocytes were isolated form healthy donors. In other experiments, murine autoreactive T cells were obtained from SJL mice immunized with PLP139-151 as described (Piccio L. et al., J. Immunol, 168, 1940-1949, 2002). Cells were resuspended at 4×10^6/ml in PBS, CaCl2, MgCl2 1 mM, 10% FCS, pH 7.2. Adhesion assays were performed on eighteen well glass slides coated overnight at 4° C. with ligands for CR3 (fibrinogen) or LFA-1 (ICAM-1). 20 μl of cell suspension were added to the wells and stimulated at 37° C. with 5 μl of agonists prior to washing, fixation and computer-assisted enumeration of bound cells.
(§4) Integrin activation was measured as induction of rapid adhesion triggered by the classical chemoattractant N-formyl-L-methionyl-L-leucyl-phenylalanine (fMLP) (100 nM) or by the CC chemokine MIP3β (CCL19, 1 μM). PMNs and monocytes were triggered to adhere to fibrinogen (CR3 ligand); naive human lymphocytes or murine encephalitogenic T cells were triggered to adhere to ICAM-1 (LFA-1 ligand). Triggered adhesion was evaluated after 2 min of stimulation under static conditions. The cells were pretreated at 37° C. for 30-60 min with the indicated concentrations of the test compound. Results are expressed as percentage of inhibition over control (=100%) and are the mean of three experiments in the case of human leukocytes. Results are expressed as mean counts and are the mean counts ±S.D of three experiments and are the mean of three experiments in the case of murine encephalitogenic lymphocytes.
Chemokines trigger rapid arrest of lymphocytes in blood vessels through pertussis toxin-sensitive G protein coupled receptors. Rapid adhesion to purified ICAM-1 was measured in in vitro adhesion assays using control/untreated cells and lymphocytes treated with concentration between 5-50 μM for 1 h. Autoreactive lymphocytes were then stimulated with 1 μM CCL19 (MIP-3beta) for 3 min. […] These compounds were already efficient in blocking adhesion using a concentration of 5 μM for the cell treatment.

Test [3] deals with encephalitogenic lymphocytes. Briefly: Spontaneous adhesion of encephalitogenic T cells on purified VCAM-1. Format: cell-based, SJL mice. Conditions: Mus musculus, Lymphocyte, 1 h. The procedure: as §1, §2
Test [4] deals with monocytes. In words: Chemotaxis assay, monocytes (fMLP). Format: cell-based. To be noted: Homo sapiens, Monocyte, fMLP 10 nM, 2 h; for inhibition at 10 µM: [cpd] 10 μM; for inhibition at 25 µM: [cpd] 25 μM; for inhibition at 50 µM: [cpd] 50 μM. The procedure: (§5) PMNs and monocytes migration was assessed using 1 or 3-μm pore size transwells (Bio-Coat Becton-Dickinson), while lymphocytes by using 5-elm pore size transwells.
(§6) Cells were in RPMI1640, containing 10% heat-inactivated Fetal Calf Serum (FCS) and 20 mM HEPES, pH 7.3, at 2×10^6/ml. 100 μl of cell suspension were added to the top well, and 600 μl of medium, containing chemoattractants and test compound, were added to the bottom well. Migration was evaluated after 2 h for PMNs and monocytes and after 4 h for lymphocytes. fMLP 10 nM (PMNs and monocytes) and MIP-3β 100 nM (lymphocytes) were utilized as chemoattractants. After fixation with 1.5% glutaraldehyde, migrated cells were counted by fluorescence-activated celli sorting using polystyrene beads (Polyscience) as an internal standard (Campbell J. J. et al. J. Cell. Biol. 134, 255-266, 1996; Laudanna C. et al. J. Biol. Chem. 273,46, 30306-30315, 1998).
(§7) Results are expressed as percentage of inhibition over control (=100%), and are the mean of three experiments.

Test [5] relates to PMNs. In words: Chemokine-induced rapid adhesion of PMNs to fibrinogen (fMLP). Format: cell-based. Conditions: Homo sapiens, 2 min, fMLP 100 nM; for inhibition at 10 µM: [cpd] 10 μM; for inhibition at 25 µM: [cpd] 25 μM; for inhibition at 50 µM: [cpd] 50 μM. The protocol:
as §3, §4
(§8) Integrin activation was measured as induction of rapid adhesion triggered by the “classical” chemoattractant fMLP (100 nM) or by the CC chemokine MIP3β (CCL19, 1 μM). PMNs were triggered to adhere to fibrinogen (CR3 ligand); lymphocytes were triggered to adhere to ICAM-1 (LFA-1 ligand).

Test [6] relates to lymphocytes. In words: Chemotaxis assay, lymphocytes (MIP-3β). Format: cell-based. Conditions: Homo sapiens, Lymphocyte, MIP-3β 100 nM, 4 h; for inhibition at 10 µM: [cpd] 10 μM, read-out: Inhibition of Chemotaxis (%) Lymphocytes (MIP3-β); for inhibition at 25 µM: [cpd] 25 μM; for inhibition at 25 µM / inhibition at 50 µM: read-out: Inhibition of Chemotaxis (%) Lymphocytes (MIP3-β) (converted); for inhibition at 50 µM: [cpd] 50 μM. The protocol: as §5, §6, §7

For test [7], the system named is lymphocytes. In words: Chemokine-induced rapid adhesion of lymphocytes to ICAM-1 (MIP3β). Type of test: cell-based. To be noted: Homo sapiens, Lymphocyte, MIP3β 1 μM; for inhibition at 10 µM: [cpd] 10 μM, read-out: Inhibition of Adhesion (%) Lymphocytes (MIP3-β); for inhibition at 25 µM: [cpd] 25 μM; for inhibition at 25 µM / inhibition at 50 µM: read-out: Inhibition of Adhesion (%) Lymphocytes (MIP3-β) (converted); for inhibition at 50 µM: [cpd] 50 μM. The procedure: as §3, §4, §8

Test [8] concerns monocytes. Briefly: Chemokine-induced rapid adhesion of monocytes to fibrinogen (fMLP). To be noted: Homo sapiens, Monocyte, fMLP 100 nM; for inhibition at 10 µM: [cpd] 10 μM; for inhibition at 25 µM: [cpd] 25 μM; for inhibition at 50 µM: [cpd] 50 μM. Type of test: cell-based. The procedure:
as §3, §4

Test [9] concerns PMNs. Briefly: Chemotaxis assay, PMNs (fMLP). Format: cell-based. To be noted: Homo sapiens, fMLP 10 nM, 2 h; for inhibition at 10 µM: [cpd] 10 μM; for inhibition at 25 µM: [cpd] 25 μM; for inhibition at 50 µM: [cpd] 50 μM. The protocol:
as §5, §6, §7

Setting [10] is: read-out: Inhibition of Spontaneous Adhesion in encephalitogenic lymphocytes (% of control/non-treated cells) ICAM-1 (converted).

With `COc1ccc(-c2c(C#N)n(CCCO)c3cc(OC)c(OC)cc23)cc1` [Example 44], the inhibition at 5 µM was 75% in test [1] and 29% in test [3] ([cpd] 5 μM, read-out: Inhibition of Spontaneous Adhesion in encephalitogenic lymphocytes (% of control/non-treated cells) VCAM-1). The inhibition at 10 µM in test [1] (setting [10]) was 84%; in [3] ([cpd] 10 μM, read-out: Inhibition of Spontaneous Adhesion in encephalitogenic lymphocytes (% of control/non-treated cells) VCAM-1 (converted)) it was 39%. The inhibition at 25 µM in [1] ([cpd] 25 μM, read-out: Inhibition of Spontaneous Adhesion in encephalitogenic lymphocytes (% of control/non-treated cells) ICAM-1 (converted)) is 88%; in test [3] ([cpd] 25 μM, read-out: Inhibition of Spontaneous Adhesion in encephalitogenic lymphocytes (% of control/non-treated cells) VCAM-1 (converted)) it was 43%. Moreover, the inhibition at 50 µM in test [1] (setting [10]) was 91.5%; in test [3] ([cpd] 50 μM, read-out: Inhibition of Spontaneous Adhesion in encephalitogenic lymphocytes (% of control/non-treated cells) VCAM-1 (converted)), 84%. In addition, the inhibition at 100 µM in test [1] ([cpd] 100 μM, read-out: Inhibition of Spontaneous Adhesion in encephalitogenic lymphocytes (% of control/non-treated cells) ICAM-1 (converted)) was 99%. The “Block of chemokine-induced autoreactive lymphocyte adhesion, in words” value in test [2] (5-50 μM for 1 h, 1 μM CCL19) was “almost complete block”. Besides, the “Chemokine-induced Adhesion in encephalitogenic lymphocytes, Mean counts ± S.D., in presence of MIP3-β stimulation” value (from here on “Chemokine-induced Adhesion”) in test [2] ([cpd] 5 μM) was 2.1 ± 0.5; in [2] ([cpd] 10 μM) it was 3.7 ± 1.1; in [2] ([cpd] 25 μM), 1.8 ± 0.5; in [2] ([cpd] 50 μM) it was 0.1 ± 0.5. The “Adhesion in encephalitogenic lymphocytes, Mean counts ± S.D., in absence of MIP3-β stimulation” value (“Adhesion … in absence of MIP3-β stimulation” for short) amounted to 1.0 ± 0.9 in [2] ([cpd] 5 μM), 0.4 ± 1.7 in test [2] ([cpd] 10 μM), 0.4 ± 0.1 in test [2] ([cpd] 25 μM) and 0.4 ± 0.5 in test [2] ([cpd] 50 μM).
For the compound `COc1cc2[nH]c(-c3nnc[nH]3)c(-c3ccccc3)c2cc1OC` [Example 58], the inhibition at 5 µM in test [1] amounted to 40.7%. The inhibition at 10 µM in test [1] (setting [10]) was 49.5%; in the test with monocytes [4], 51.7%; in the test with PMNs [5] it was 33.1%; in the test with lymphocytes [6], 49.3%; in the test on lymphocytes [7], 92.1%; in the test with monocytes [8], 6.8%. Also, the inhibition at 10 µM in the test with PMNs [9] was determined as 53.9%. The inhibition at 50 µM in test [1] (setting [10]) is 95.6%; with monocytes [4], 97.8%; in the test on PMNs [5], 61.4%; in the test with lymphocytes [6], 92.2%; with lymphocytes [7], 94.7%; with monocytes [8], 16.6%. In addition, the inhibition at 50 µM in the test on PMNs [9] was 97.9%. Further, the results for the “Chemokine-induced Adhesion” value in test [2] ([cpd] 10 μM) and in [2] ([cpd] 50 μM) were 73.2 ± 5.5 and 46.8 ± 4.7, respectively. Further, the “Adhesion … in absence of MIP3-β stimulation” value was found to be 48.7 ± 6.5 in test [2] ([cpd] 10 μM) and 19.8 ± 5.8 in test [2] ([cpd] 50 μM). For the same compound, the inhibition at 25 µM in the test with monocytes [4] was 87.5%; in the test on PMNs [5] it was 45%; in the test with lymphocytes [6] it was 82.9%; in the test with lymphocytes [7] it was 93.9%; in the test on monocytes [8] it was 10.6%; with PMNs [9], 87.5%.
For the compound `COc1ccc(-c2c(C#N)n(CCCN(C)C)c3cc(OC)c(OC)cc23)cc1` [Example 55], in test [1], the inhibition at 5 µM was 7.6%. In addition, the inhibition at 10 µM in [1] (setting [10]) was 12.4%; with monocytes [4], 54.6%; in the test with PMNs [5], 8.4%; in the test on lymphocytes [6], 43.7%; in the test with lymphocytes [7], 80%; with monocytes [8], 7.7%. Besides, the inhibition at 10 µM in the test with PMNs [9] was determined as 79.4%. Further, the inhibition at 50 µM in [1] (setting [10]) is 96.4%; in the test with monocytes [4], 92.9%; in the test with PMNs [5] it was 27.4%; with lymphocytes [6], 91.2%; with lymphocytes [7], 97%; in the test on monocytes [8] it was 97.9%. The same compound gave an inhibition at 50 µM in the test with PMNs [9] of 96.8%. For the same compound, the “Chemokine-induced Adhesion” value in [2] ([cpd] 10 μM) came out at 98.3 ± 13.7; in [2] ([cpd] 50 μM), 46.9 ± 6.2. Further, the “Adhesion … in absence of MIP3-β stimulation” value was determined as 53.5 ± 3.5 in test [2] ([cpd] 10 μM) and 13.2 ± 3.7 in test [2] ([cpd] 50 μM). Also, the inhibition at 25 µM in the test on monocytes [4] is 89.2%; with PMNs [5], 19%; with lymphocytes [6], 84.2%; in the test on lymphocytes [7], 91.9%; with monocytes [8], 38.5%; in the test on PMNs [9], 94.2%.
